The values that follow come from patent US11571418B2, “Platinum compounds that inhibit constitutive STAT3 signaling and induce cell cycle arrest and apoptosis of malignant cells” (H. LEE MOFFITT CANCER CENTER AND RESEARCH INSTITUTE, INC., priority 2011, dated 2023).

The subject of one assay is inactive Stat5 monomer. Description: Inactive STAT monomer added to activated Stat3 before EMSA (titration of compound). The class given is binding.
A further assay relates to MDA-MB-453. Description: Ki67 proliferation index by immunohistochemistry. The class given is cell-based, human. The following applies: no persistent Stat3 activity. How it is done:
FIGS. 5A and 5B. Evaluation for effects of PLATINUM-401 on cellular constitutive Stat3 activation and cell proliferation. Normal or malignant cells were treated with or without PLATINUM-401 and nuclear extracts were prepared for Stat3 DNA-binding activity assay with hSIE probe, or cells were processed for nuclear Ki67 immunohistochemistry. (FIG. 5A) EMSA analysis of Stat3 DNA-binding activity; (FIG. 5B) Graphical representations of quantified nuclear staining of Ki-67 proliferation index. Stat3:Stat3-DNA complexes in gels are labeled. The Ki-67 proliferation indexes were calculated as the percent positive tumor cells relative to the total number of cells. […]
Immunohistochemistry—The indirect peroxidase-antiperoxidase test was performed on cytospins prepared from cell lines (control and treated). […] The presence of Ki-67 nuclear staining was calculated as percent positive tumor cells in relation to the total number of cells.
The inventors further examined the biological effects of PLATINUM-401 and determined whether any changes might correlate with the inhibition of constitutively-active Stat3. […]
Changes in cell proliferation induced by treatment with PLATINUM-401 were assayed in terms of Ki67 proliferation index by immunohistochemistry. The presence of Ki-67 nuclear staining was calculated as the percent positive tumor cells in relation to the total number of cells.

A further assay relates to 5TGM1. The assay is described as follows: TUNEL analysis of apoptosis. In kind it is cell-based, mouse. The following applies: 48 h. From the text:
(§1) FIGS. 7A-7C. TUNEL analysis of PLATINUM-401-mediated apoptosis. (FIG. 7A) Normal NIH3T3 fibroblasts and their v-Src-transformed counterparts (NIH3T3/v-Src), human breast carcinoma cell lines (MDA-MB-453, MDA-MB-435, MDA-MB-468, and MDA-MB-231), human non-small cell lung cancer cell line (A549), human prostate cancer cell line (DU145), multiple myeloma 5TGM1 (mouse) and U266 (human) cell lines, mouse melanoma cell line (B16) and human pancreatic cancer cell line (Panc1) were all treated with or without PLATINUM-401 for 48 h and analyzed by TUNEL for DNA damage. For each cell line, the activated Stat3 status is indicated as (−), no constitutively-active Stat3 and (+), constitutively-active Stat3 (see FIG. 5A). Data are representative of 3 independent determinations; (FIG. 7B) Human breast cancer cell lines (MDA-MB-453, MDA-MB-468 and MDA-MB-435) were transfected with or without Stat3β or Stat3 antisense (Stat3AS), or were treated with or without Stat3 peptidomimetic inhibitor, ISS 610 (1 mM) or PLATINUM-401 (5 μM)). Forty-eight hours afterwards, cells were harvested and processed for TUNEL analysis; (FIG. 7C) The viral Src-transformed NIH3T3/v-Src fibroblasts were transfected with or without wild-type Stat3 (pRc/CMV Stat3 Flag) and treated with or without 5 μM PLATINUM-401 for 36 h. Cells were subsequently harvested for nuclear extracts preparation and Stat3 DNA-binding assay in vitro with EMSA analysis (left panel), or were processed for TUNEL analysis (right panel).
(§2) Cell proliferation and TUNEL assays—Proliferating cells were first treated with or without PLATINUM-401 for up to 48 h. A portion of cells were harvested for BrdU incorporation following the manufacturer's (BD Biosciences Pharmingen, San Diego, Calif.) instructions and analyzed by flow cytometry. Harvested cells were also analyzed for apoptosis via detection of TdT-mediated dUTP nick-end labeling (TUNEL) assay using Apoptosis Detection Systems Fluorescein according to the manufacturer's (Roche, Indianapolis, Ind.) instructions. Oligonucleotides and plasmids Transfections. The Stat3 antisense (5′-[…]-3′) (SEQ ID NO:3) or control mismatch oligonucleotides (5′-[…]-3′) (SEQ ID NO:4) were synthesized using phosphorothioate chemistry and were synthesized with 2′-Omethoxyethyl modification of the five terminal nucleotides (underlined; (Mora et al., 2002; Karras et al., 2000)) to increase stability. Transfections of Stat3AS and plasmids were carried out with Lipofectamine 2000 (LF) according to the manufacturer's instructions (Invitrogen, Carlsbad, Calif.). Briefly, cells were seeded at 1-2×10^6 cells/10-cm tissue-culture plates 18 h before transfection. Immediately before transfection, cells were washed once with PBS. Cells were transfected with luciferase reporters (4 μg) in the presence or absence of v-Src (4 μg), or were transfected with Stat3β (4 μg) or pRC/CMV Stat3 Flag (4 μg). Stat3AS transfections were carried out LF alone, or with LF/Stat3 antisense oligonucleotides, or LF/Stat3 mismatch oligonucleotides (final concentration of the oligonucleotides was 250 nM). After 2-3 h, the transfection medium was aspirated and cells washed with PBS before fresh medium added containing 10% FBS was added.
(§3) Cells were analyzed for DNA-strand breaks by TUNEL staining. […] The incidence of apoptosis correlated with the prevalence of constitutively-active Stat3 in malignant cells (FIG. 7, lower panel). […]

Another assay concerns B16. Description: TUNEL analysis of apoptosis. The class given is cell-based, mouse. Conditions: 48 h.
Description: as §1, §2, §3

A further assay deals with NIH3T3/v-Src. Description: TUNEL analysis of apoptosis. In kind it is cell-based, mouse.
Description: as §1, §2, §3

The subject of another assay is NIH3T3. The assay is described as follows: TUNEL analysis of apoptosis. In kind it is cell-based, mouse. Conditions: 48 h, no aberrant Stat3 activity.
Description: as §1, §2, §3

Take `CC(O)CN1CCN(CC(C)O)CC1` (stereo not shown) [PLATINUM-401]: in the assay on inactive Stat5 monomer, the “influence of inactive Stat5 monomer on compound's effect on Stat3 DNA-binding activity” value is listed as “failed to significantly influence”. Also, in the assay on MDA-MB-453, the “proliferation (Ki67 index)” value is listed as “lack of effect”. Besides, the TUNEL staining result in the assay with 5TGM1 is on record as “Significant TUNEL staining”; in the assay on B16 it was “Significant TUNEL staining”; in the assay on NIH3T3/v-Src (48 h), “Significant TUNEL staining”; in the assay with NIH3T3, “no TUNEL staining”. The “compound-mediated apoptosis on overexpression of Stat3” value in the assay on NIH3T3/v-Src (NIH3T3/v-Src transfected with wild-type Stat3, 5 μM, 36 h) is listed as “minimizes the extent”.
